In PubChem BioAssay (NCI):
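These data come from cells grown in 96-well plates and exposed to compound for 48 hours at five concentrations. Abbreviation: GI50, concentration required for 50% inhibition of growth. TGI is the concentration that stops growth completely.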

How the values were obtained:
Assay in all cases: NCI anticancer screen, dose series, 48 h
OVCAR-3 ovarian = tested on: OVCAR-3 ovarian
MDA-MB-231 breast = tested on: MDA-MB-231 breast
SK-MEL-28 melanoma = tested on: SK-MEL-28 melanoma
SK-MEL-5 melanoma = tested on: SK-MEL-5 melanoma
T-47D breast = tested on: T-47D breast
SW-620 colon = tested on: SW-620 colon
SNB-19 CNS = tested on: SNB-19 CNS
DU-145 prostate = tested on: DU-145 prostate
SNB-75 CNS = tested on: SNB-75 CNS
NCI/ADR-RES ovarian = tested on: NCI/ADR-RES ovarian
A498 renal = tested on: A498 renal
BT-549 breast = tested on: BT-549 breast
OVCAR-4 ovarian = tested on: OVCAR-4 ovarian
SF-539 CNS = tested on: SF-539 CNS
ACHN renal = tested on: ACHN renal
HOP-92 NSCLC = tested on: HOP-92 NSCLC
HS 578T breast = tested on: HS 578T breast
HCT-15 colon = tested on: HCT-15 colon
SR leukemia = tested on: SR leukemia
UACC-62 melanoma = tested on: UACC-62 melanoma
SF-268 CNS = tested on: SF-268 CNS
RPMI-8226 leukemia = tested on: RPMI-8226 leukemia
UO-31 renal = tested on: UO-31 renal
NCI-H460 lung = tested on: NCI-H460 lung
HOP-62 NSCLC = tested on: HOP-62 NSCLC
SF-295 CNS = tested on: SF-295 CNS
NCI-H23 lung = tested on: NCI-H23 lung
MDA-MB-435 = tested on: MDA-MB-435
MALME-3M melanoma = tested on: MALME-3M melanoma
HT29 colon = tested on: HT29 colon
MCF7 breast = tested on: MCF7 breast
TK-10 renal = tested on: TK-10 renal
IGROV1 ovarian = tested on: IGROV1 ovarian
786-0 renal = tested on: 786-0 renal
A549 NSCLC = tested on: A549 NSCLC
SK-MEL-2 melanoma = tested on: SK-MEL-2 melanoma
HCT-116 colon = tested on: HCT-116 colon
HL-60(TB) leukemia = tested on: HL-60(TB) leukemia
NCI-H226 lung = tested on: NCI-H226 lung
EKVX NSCLC = tested on: EKVX NSCLC
RXF 393 renal = tested on: RXF 393 renal
NCI-H522 lung = tested on: NCI-H522 lung
CCRF-CEM leukemia = tested on: CCRF-CEM leukemia
K-562 leukemia = tested on: K-562 leukemia
HCC-2998 colon = tested on: HCC-2998 colon
MOLT-4 leukemia = tested on: MOLT-4 leukemia
M14 melanoma = tested on: M14 melanoma
OVCAR-8 ovarian = tested on: OVCAR-8 ovarian
SK-OV-3 ovarian = tested on: SK-OV-3 ovarian
UACC-257 melanoma = tested on: UACC-257 melanoma
SN12C renal = tested on: SN12C renal
CAKI-1 renal = tested on: CAKI-1 renal
LOX IMVI melanoma = tested on: LOX IMVI melanoma
U251 CNS = tested on: U251 CNS
PC-3 prostate = tested on: PC-3 prostate
OVCAR-5 ovarian = tested on: OVCAR-5 ovarian
KM12 colon = tested on: KM12 colon

## CCOC(=O)c1ccc2c(c1)c1c(C)c3cnccc3c(C)c1n2C
OVCAR-3 ovarian
  GI50: 119 nM
  TGI: 470 nM
MDA-MB-231 breast
  GI50: 160 nM
  TGI: 892 nM
SK-MEL-28 melanoma
  GI50: 183 nM
  TGI: 463 nM
SK-MEL-5 melanoma
  GI50: 192 nM
  TGI: 651 nM
T-47D breast
  GI50: 382 nM
  TGI: 15800 nM
SW-620 colon
  GI50: 48.2 nM
  TGI: 839 nM
SNB-19 CNS
  GI50: 107 nM
  TGI: 1330 nM
DU-145 prostate
  GI50: 108 nM
  TGI: 718 nM
SNB-75 CNS
  GI50: 141 nM
  TGI: 703 nM
NCI/ADR-RES ovarian
  GI50: 68.2 nM
  TGI: 600 nM
A498 renal
  GI50: 162 nM
  TGI: 376 nM
BT-549 breast
  GI50: 441 nM
  TGI: 1880 nM
OVCAR-4 ovarian
  GI50: 217 nM
  TGI: 697 nM
SF-539 CNS
  GI50: 173 nM
  TGI: 1070 nM
ACHN renal
  GI50: 38.5 nM
  TGI: 328 nM
HOP-92 NSCLC
  GI50: 143 nM
  TGI: 813 nM
HS 578T breast
  GI50: 204 nM
  TGI: 900 nM
HCT-15 colon
  GI50: 57.1 nM
  TGI: 921 nM
SR leukemia
  GI50: 44.7 nM
UACC-62 melanoma
  GI50: 98.4 nM
  TGI: 264 nM
SF-268 CNS
  GI50: 98.8 nM
  TGI: 823 nM
RPMI-8226 leukemia
  GI50: 95.3 nM
  TGI: 1800 nM
UO-31 renal
  GI50: 53.6 nM
  TGI: 728 nM
NCI-H460 lung
  GI50: 265 nM
  TGI: 1070 nM
HOP-62 NSCLC
  GI50: 75.5 nM
  TGI: 1070 nM
SF-295 CNS
  GI50: 128 nM
  TGI: 765 nM
NCI-H23 lung
  GI50: 100 nM
  TGI: 417 nM
MDA-MB-435
  GI50: 142 nM
  TGI: 501 nM
MALME-3M melanoma
  GI50: 131 nM
  TGI: 407 nM
HT29 colon
  GI50: 56.1 nM
  TGI: 1410 nM
MCF7 breast
  GI50: 205 nM
  TGI: 1030 nM
TK-10 renal
  GI50: 334 nM
  TGI: 1310 nM
IGROV1 ovarian
  GI50: 53.9 nM
  TGI: 357 nM
786-0 renal
  GI50: 141 nM
  TGI: 1110 nM
A549 NSCLC
  GI50: 147 nM
  TGI: 1020 nM
SK-MEL-2 melanoma
  GI50: 190 nM
  TGI: 677 nM
HCT-116 colon
  GI50: 37.8 nM
  TGI: 1030 nM
HL-60(TB) leukemia
  GI50: 324 nM
  TGI: 1490 nM
NCI-H226 lung
  GI50: 91.1 nM
  TGI: 382 nM
EKVX NSCLC
  GI50: 193 nM
  TGI: 690 nM
RXF 393 renal
  GI50: 120 nM
  TGI: 390 nM
NCI-H522 lung
  GI50: 88.1 nM
  TGI: 318 nM
CCRF-CEM leukemia
  GI50: 216 nM
  TGI: 2940 nM
K-562 leukemia
  GI50: 79.2 nM
  TGI: 1320 nM
HCC-2998 colon
  GI50: 257 nM
  TGI: 1290 nM
MOLT-4 leukemia
  GI50: 59.4 nM
  TGI: 1660 nM
M14 melanoma
  GI50: 151 nM
  TGI: 383 nM
OVCAR-8 ovarian
  GI50: 116 nM
  TGI: 2990 nM
SK-OV-3 ovarian
  GI50: 216 nM
  TGI: 713 nM
UACC-257 melanoma
  GI50: 181 nM
  TGI: 651 nM
SN12C renal
  GI50: 78.3 nM
  TGI: 865 nM
CAKI-1 renal
  GI50: 47.5 nM
  TGI: 859 nM
LOX IMVI melanoma
  GI50: 55.8 nM
  TGI: 310 nM
U251 CNS
  GI50: 99.2 nM
  TGI: 830 nM
PC-3 prostate
  GI50: 137 nM
  TGI: 821 nM
OVCAR-5 ovarian
  GI50: 216 nM
  TGI: 912 nM
KM12 colon
  GI50: 128 nM
  TGI: 1030 nM
